In the NIST ThermoML archive (doi:10.1016/j.jct.2019.03.023):
“And” between values parts separate entries of the source, which are not always exact repeats. Identical values can stand only once.

Experiment: molar heat capacity at constant volume
Conditions: Vacuum adiabatic calorimetry

CC(C)O [propan-2-ol]
Fluid (supercritical or subcritical phases)
Conditions	molar heat capacity at constant volume
506.89 K, Mass density=324.5 kg/m3	348.43 J/K/mol and 347.05 J/K/mol
506.89 K, Mass density=343.1 kg/m3	330.28 J/K/mol
506.97 K, Mass density=329.2 kg/m3	330.22 J/K/mol
506.98 K, Mass density=288.99 kg/m3	360.33 J/K/mol
506.98 K, Mass density=324.5 kg/m3	352.64 J/K/mol
506.98 K, Mass density=343.1 kg/m3	333.83 J/K/mol
507.07 K, Mass density=288.99 kg/m3	365.74 J/K/mol
507.07 K, Mass density=324.5 kg/m3	346.75 J/K/mol
507.08 K, Mass density=343.1 kg/m3	331.96 J/K/mol
507.11 K, Mass density=329.2 kg/m3	342.54 J/K/mol
507.17 K, Mass density=288.99 kg/m3	355.1 J/K/mol
507.17 K, Mass density=293.3 kg/m3	358.29 J/K/mol
507.17 K, Mass density=324.5 kg/m3	351.56 J/K/mol
507.17 K, Mass density=343.1 kg/m3	333.89 J/K/mol
507.2 K, Mass density=329.2 kg/m3	339.6 J/K/mol
507.26 K, Mass density=288.99 kg/m3	361.53 J/K/mol
507.26 K, Mass density=324.5 kg/m3	348.79 J/K/mol
507.26 K, Mass density=343.1 kg/m3	336.65 J/K/mol
507.3 K, Mass density=329.2 kg/m3	339.42 J/K/mol
507.35 K, Mass density=293.3 kg/m3	367 J/K/mol
507.35 K, Mass density=324.5 kg/m3	351.56 J/K/mol
507.36 K, Mass density=343.1 kg/m3	338.58 J/K/mol
507.4 K, Mass density=329.2 kg/m3	335.93 J/K/mol
507.45 K, Mass density=293.3 kg/m3	363.82 J/K/mol
507.45 K, Mass density=324.5 kg/m3	357.02 J/K/mol
507.45 K, Mass density=343.1 kg/m3	335.69 J/K/mol
507.5 K, Mass density=329.2 kg/m3	343.02 J/K/mol
507.54 K, Mass density=293.3 kg/m3	371.39 J/K/mol
507.54 K, Mass density=324.5 kg/m3	349.09 J/K/mol
507.54 K, Mass density=343.1 kg/m3	337.79 J/K/mol
507.59 K, Mass density=329.2 kg/m3	338.94 J/K/mol
507.63 K, Mass density=293.3 kg/m3	367.06 J/K/mol
507.63 K, Mass density=324.5 kg/m3	353.72 J/K/mol
507.65 K, Mass density=343.1 kg/m3	339.78 J/K/mol
507.69 K, Mass density=329.2 kg/m3	354.86 J/K/mol
507.7 K, Mass density=329.2 kg/m3	347.95 J/K/mol
507.73 K, Mass density=293.3 kg/m3	369.4 J/K/mol
507.73 K, Mass density=324.5 kg/m3	360.99 J/K/mol
507.82 K, Mass density=274 kg/m3	385.09 J/K/mol
507.82 K, Mass density=293.3 kg/m3	371.39 J/K/mol
507.82 K, Mass density=324.5 kg/m3	358.53 J/K/mol
507.82 K, Mass density=343.1 kg/m3	338.76 J/K/mol
507.89 K, Mass density=329.2 kg/m3	352.76 J/K/mol
507.91 K, Mass density=274 kg/m3	385.33 J/K/mol
507.91 K, Mass density=293.3 kg/m3	375.83 J/K/mol
507.91 K, Mass density=324.5 kg/m3	365.2 J/K/mol
507.91 K, Mass density=343.1 kg/m3	340.98 J/K/mol
507.95 K, Mass density=343.1 kg/m3	342.54 J/K/mol and 212.44 J/K/mol
508.01 K, Mass density=234.3 kg/m3	436.29 J/K/mol
508.01 K, Mass density=255.8 kg/m3	424.87 J/K/mol
508.01 K, Mass density=274 kg/m3	393.86 J/K/mol
508.01 K, Mass density=293.3 kg/m3	380.52 J/K/mol
508.01 K, Mass density=324.5 kg/m3	363.27 J/K/mol
508.01 K, Mass density=343.1 kg/m3	205.52 J/K/mol
508.04 K, Mass density=329.2 kg/m3	358.17 J/K/mol
508.1 K, Mass density=234.3 kg/m3	442.3 J/K/mol
508.1 K, Mass density=255.8 kg/m3	425.65 J/K/mol
508.1 K, Mass density=266.3 kg/m3	412.31 J/K/mol
508.1 K, Mass density=274 kg/m3	396.93 J/K/mol
508.1 K, Mass density=281.9 kg/m3	391.7 J/K/mol
508.1 K, Mass density=293.3 kg/m3	381.6 J/K/mol
508.1 K, Mass density=324.5 kg/m3	367.06 J/K/mol
508.1 K, Mass density=343.1 kg/m3	191.64 J/K/mol
508.16 K, Mass density=329.2 kg/m3	363.76 J/K/mol and 218.14 J/K/mol
508.18 K, Mass density=329.2 kg/m3	208.53 J/K/mol
508.19 K, Mass density=234.3 kg/m3	447.71 J/K/mol
508.19 K, Mass density=255.8 kg/m3	429.38 J/K/mol
508.19 K, Mass density=266.3 kg/m3	417.66 J/K/mol
508.19 K, Mass density=274 kg/m3	404.38 J/K/mol
508.19 K, Mass density=281.9 kg/m3	398.49 J/K/mol
508.19 K, Mass density=288.99 kg/m3	390.74 J/K/mol
508.19 K, Mass density=293.3 kg/m3	383.29 J/K/mol
508.19 K, Mass density=324.5 kg/m3	370.25 J/K/mol
508.19 K, Mass density=343.1 kg/m3	187.98 J/K/mol
508.28 K, Mass density=234.3 kg/m3	453.36 J/K/mol
508.28 K, Mass density=255.8 kg/m3	438.99 J/K/mol
508.28 K, Mass density=266.3 kg/m3	426.19 J/K/mol
508.28 K, Mass density=274 kg/m3	414.84 J/K/mol
508.28 K, Mass density=281.9 kg/m3	409.07 J/K/mol
508.28 K, Mass density=288.99 kg/m3	395.61 J/K/mol
508.28 K, Mass density=293.3 kg/m3	391.22 J/K/mol
508.28 K, Mass density=324.5 kg/m3	371.75 J/K/mol and 221.39 J/K/mol
508.28 K, Mass density=329.2 kg/m3	195.91 J/K/mol
508.29 K, Mass density=343.1 kg/m3	181.07 J/K/mol
508.34 K, Mass density=324.5 kg/m3	214 J/K/mol
508.37 K, Mass density=329.2 kg/m3	192.6 J/K/mol
508.38 K, Mass density=234.3 kg/m3	464.9 J/K/mol
508.38 K, Mass density=255.8 kg/m3	446.27 J/K/mol
508.38 K, Mass density=266.3 kg/m3	435.27 J/K/mol
508.38 K, Mass density=274 kg/m3	423.79 J/K/mol
508.38 K, Mass density=281.9 kg/m3	417.78 J/K/mol
508.38 K, Mass density=288.99 kg/m3	404.68 J/K/mol
508.38 K, Mass density=293.3 kg/m3	398.73 J/K/mol
508.38 K, Mass density=343.1 kg/m3	178 J/K/mol
508.47 K, Mass density=234.3 kg/m3	474.81 J/K/mol
508.47 K, Mass density=255.8 kg/m3	454.98 J/K/mol
508.47 K, Mass density=266.3 kg/m3	444.04 J/K/mol
508.47 K, Mass density=274 kg/m3	437.73 J/K/mol
508.47 K, Mass density=281.9 kg/m3	430.04 J/K/mol
508.47 K, Mass density=288.99 kg/m3	411.05 J/K/mol
508.47 K, Mass density=293.3 kg/m3	405.04 J/K/mol
508.47 K, Mass density=324.5 kg/m3	207.09 J/K/mol
508.47 K, Mass density=329.2 kg/m3	191.7 J/K/mol
508.47 K, Mass density=343.1 kg/m3	175.96 J/K/mol
508.51 K, Mass density=234.3 kg/m3	487.37 J/K/mol and 279.44 J/K/mol
508.56 K, Mass density=234.3 kg/m3	267.78 J/K/mol
508.56 K, Mass density=255.8 kg/m3	471.14 J/K/mol
508.56 K, Mass density=266.3 kg/m3	462.31 J/K/mol
508.56 K, Mass density=274 kg/m3	451.49 J/K/mol
508.56 K, Mass density=281.9 kg/m3	440.92 J/K/mol
508.56 K, Mass density=288.99 kg/m3	425.11 J/K/mol
508.56 K, Mass density=293.3 kg/m3	419.1 J/K/mol
508.56 K, Mass density=324.5 kg/m3	206.31 J/K/mol
508.56 K, Mass density=343.1 kg/m3	177.52 J/K/mol
508.57 K, Mass density=329.2 kg/m3	186.9 J/K/mol
508.61 K, Mass density=293.3 kg/m3	422.11 J/K/mol
508.66 K, Mass density=234.3 kg/m3	258.83 J/K/mol
508.66 K, Mass density=255.8 kg/m3	495.78 J/K/mol
508.66 K, Mass density=266.3 kg/m3	484.85 J/K/mol
508.66 K, Mass density=274 kg/m3	472.11 J/K/mol
508.66 K, Mass density=281.9 kg/m3	456.18 J/K/mol
508.66 K, Mass density=288.99 kg/m3	439.35 J/K/mol
508.66 K, Mass density=293.3 kg/m3	428.48 J/K/mol
508.66 K, Mass density=324.5 kg/m3	201.38 J/K/mol
508.66 K, Mass density=343.1 kg/m3	178 J/K/mol
508.67 K, Mass density=274 kg/m3	481 J/K/mol
508.67 K, Mass density=329.2 kg/m3	188.1 J/K/mol
508.68 K, Mass density=281.9 kg/m3	461.83 J/K/mol
508.68 K, Mass density=293.3 kg/m3	434.49 J/K/mol and 253.6 J/K/mol
508.69 K, Mass density=255.8 kg/m3	507.8 J/K/mol
508.69 K, Mass density=274 kg/m3	491.94 J/K/mol
508.69 K, Mass density=288.99 kg/m3	447.41 J/K/mol and 264.72 J/K/mol
508.7 K, Mass density=255.8 kg/m3	524.03 J/K/mol and 301.68 J/K/mol
508.71 K, Mass density=266.3 kg/m3	520.48 J/K/mol
508.71 K, Mass density=281.9 kg/m3	469.58 J/K/mol and 277.46 J/K/mol
508.72 K, Mass density=266.3 kg/m3	572.71 J/K/mol and 337.73 J/K/mol
508.72 K, Mass density=274 kg/m3	515.62 J/K/mol and 304.08 J/K/mol
508.72 K, Mass density=293.3 kg/m3	245.07 J/K/mol
508.73 K, Mass density=255.8 kg/m3	293.08 J/K/mol
508.74 K, Mass density=281.9 kg/m3	270.61 J/K/mol
508.75 K, Mass density=234.3 kg/m3	245.01 J/K/mol
508.75 K, Mass density=266.3 kg/m3	306.97 J/K/mol
508.75 K, Mass density=288.99 kg/m3	247.77 J/K/mol
508.75 K, Mass density=324.5 kg/m3	199.15 J/K/mol
508.75 K, Mass density=343.1 kg/m3	175.96 J/K/mol
508.76 K, Mass density=329.2 kg/m3	186.9 J/K/mol
508.84 K, Mass density=234.3 kg/m3	238.7 J/K/mol
508.84 K, Mass density=255.8 kg/m3	268.32 J/K/mol
508.84 K, Mass density=266.3 kg/m3	281.06 J/K/mol
508.84 K, Mass density=274 kg/m3	273.13 J/K/mol
508.84 K, Mass density=281.9 kg/m3	250 J/K/mol
508.84 K, Mass density=288.99 kg/m3	237.68 J/K/mol
508.84 K, Mass density=293.3 kg/m3	231.97 J/K/mol
508.84 K, Mass density=324.5 kg/m3	196.75 J/K/mol
508.84 K, Mass density=343.1 kg/m3	176.44 J/K/mol
508.94 K, Mass density=234.3 kg/m3	228.96 J/K/mol
508.94 K, Mass density=255.8 kg/m3	253 J/K/mol
508.94 K, Mass density=266.3 kg/m3	267.3 J/K/mol
508.94 K, Mass density=274 kg/m3	261.53 J/K/mol
508.94 K, Mass density=281.9 kg/m3	233.77 J/K/mol
508.94 K, Mass density=288.99 kg/m3	223.91 J/K/mol
508.94 K, Mass density=293.3 kg/m3	219.23 J/K/mol
508.94 K, Mass density=324.5 kg/m3	197.11 J/K/mol
509.02 K, Mass density=255.8 kg/m3	241.34 J/K/mol
509.03 K, Mass density=266.3 kg/m3	252.46 J/K/mol
509.03 K, Mass density=274 kg/m3	247.59 J/K/mol
509.03 K, Mass density=281.9 kg/m3	225.96 J/K/mol
509.03 K, Mass density=288.99 kg/m3	217.96 J/K/mol
509.03 K, Mass density=293.3 kg/m3	209.73 J/K/mol
509.03 K, Mass density=324.5 kg/m3	192.42 J/K/mol
509.12 K, Mass density=234.3 kg/m3	213.22 J/K/mol
509.12 K, Mass density=266.3 kg/m3	242.96 J/K/mol
509.12 K, Mass density=274 kg/m3	238.4 J/K/mol
509.12 K, Mass density=281.9 kg/m3	217.24 J/K/mol

molar heat capacity at constant volume [J/K/mol]
Conditions	507.95 K	508.16 K	508.28 K	508.51 K	508.68 K	508.69 K	508.7 K	508.71 K	508.72 K
Gas	–	–	–	279.44	–	–	301.68	–	337.73
Liquid	212.44	218.14	221.39	–	253.6	264.72	–	277.46	304.08
